Laboratory results taken from patent US20240190880A1 (THE REGENTS OF THE UNIVERSITY OF MICHIGAN, priority 2021, published 2024).

target: T1, ER (Homo sapiens, UniProt P03372); assay: ER degradation activity, in-cell western blot analysis in T47D cells; assay type: cell-based; settings: 16 hours, Table A does not say which cell line (T47D or MCF7), read-out: Potency (DC50)
T1 construct: host or cells: T47D and MCF7 human breast cancer cells
T1 sequence (P03372 1-595): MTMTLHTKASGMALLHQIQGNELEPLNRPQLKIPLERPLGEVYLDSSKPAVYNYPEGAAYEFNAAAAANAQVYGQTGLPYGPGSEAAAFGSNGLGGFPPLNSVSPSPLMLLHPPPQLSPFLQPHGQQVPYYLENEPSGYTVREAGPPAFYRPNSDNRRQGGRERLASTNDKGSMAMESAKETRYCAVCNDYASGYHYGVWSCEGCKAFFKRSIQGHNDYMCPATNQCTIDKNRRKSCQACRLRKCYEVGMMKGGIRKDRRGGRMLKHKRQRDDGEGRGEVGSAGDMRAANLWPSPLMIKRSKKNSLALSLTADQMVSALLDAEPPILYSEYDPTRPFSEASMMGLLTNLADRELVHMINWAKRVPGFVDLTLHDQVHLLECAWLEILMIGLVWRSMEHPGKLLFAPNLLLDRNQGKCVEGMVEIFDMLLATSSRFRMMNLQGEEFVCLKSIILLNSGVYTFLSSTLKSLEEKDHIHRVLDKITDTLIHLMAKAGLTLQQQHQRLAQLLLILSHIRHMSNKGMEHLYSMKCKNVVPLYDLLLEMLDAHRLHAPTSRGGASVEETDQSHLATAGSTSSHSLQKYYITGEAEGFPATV
Method in brief: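 In-cell western, T47D; compounds 16 h, 0.5% DMSO final; anti-rabbit-680/anti-mouse-800 secondaries, 1 h RT, dark; read on CLX imager. ER % vs untreated/DMSO wells (100%).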

`C[C@@H]1Cc2c([nH]c3ccccc23)[C@@H](c2c(F)cc(N3CC4(CCN(CC(=O)N5Cc6cc7c(cc6C5)C(=O)N(C5CCC(=O)NC5=O)C7)CC4)C3)cc2F)N1CC(F)F` (stereo partly drawn) [E 98, 3-(6-(2-(2-(4-((1R,3R)-2-(2,2-difluoroethyl)-3-methyl-2,3,4,9-tetrahydro-1H-pyrido[3,4-b]indol-1-yl)-3,5-difluorophenyl)-2,7-diazaspiro[3.5]nonan-7-yl)acetyl)-1-oxo-3,5,6,7-tetrahydropyrrolo[3,4-f]isoindol-2(1H)-yl)piperidine-2,6-dione] and `C[C@@H]1Cc2c([nH]c3ccccc23)[C@@H](c2c(F)cc(N3CCC4(CCN(CC(=O)N5Cc6cc7c(cc6C5)C(=O)N(C5CCC(=O)NC5=O)C7)CC4)C3)cc2F)N1CC(F)F` (stereo partly drawn) [E 108, 3-(6-(2-(2-(4-((1R,3R)-2-(2,2-difluoroethyl)-3-methyl-2,3,4,9-tetrahydro-1H-pyrido[3,4-b]indol-1-yl)-3,5-difluorophenyl)-2,8-diazaspiro[4.5]decan-8-yl)acetyl)-1-oxo-3,5,6,7-tetrahydropyrrolo[3,4-f]isoindol-2(1H)-yl)piperidine-2,6-dione] cannot be ordered by DC50: under 10 nM for the first, under 10 nM for the second.

First: C[C@@H]1Cc2c([nH]c3ccccc23)[C@@H](c2c(F)cc(N3CCC4(CC3)CC(C(=O)N3CCC(CN5Cc6cc7c(cc6C5)C(=O)N(C5CCC(=O)NC5=O)C7=O)CC3)C4)cc2F)N1CC(F)F (stereo partly drawn) [E 99, 6-((1-(7-(4-((1R,3R)-2-(2,2-difluoroethyl)-3-methyl-2,3,4,9-tetrahydro-1H-pyrido[3,4-b]indol-1-yl)-3,5-difluorophenyl)-7-azaspiro[3.5]nonane-2-carbonyl)piperidin-4-yl)methyl)-2-(2,6-dioxopiperidin-3-yl)-6,7-dihydropyrrolo[3,4-f]isoindole-1,3(2H,5H)-dione]
Second: C[C@@H]1Cc2c([nH]c3ccccc23)[C@@H](c2c(F)cc(N3CCC4(CC3)CC(C(=O)N3CCC(N5Cc6cc7c(cc6C5)C(=O)N(C5CCC(=O)NC5=O)C7=O)CC3)C4)cc2F)N1CC(F)F (stereo partly drawn) [E 100, 6-(1-(7-(4-((1R,3R)-2-(2,2-difluoroethyl)-3-methyl-2,3,4,9-tetrahydro-1H-pyrido[3,4-b]indol-1-yl)-3,5-difluorophenyl)-7-azaspiro[3.5]nonane-2-carbonyl)piperidin-4-yl)-2-(2,6-dioxopiperidin-3-yl)-6,7-dihydropyrrolo[3,4-f]isoindole-1,3(2H,5H)-dione]
The DC50 of the first is higher: 10 to 100 nM for the first, under 10 nM for the second.

First: C[C@@H]1Cc2c([nH]c3ccccc23)[C@@H](c2c(F)cc(N3CCC4(CC3)CC(C(=O)N3CCC(N5Cc6cc7c(cc6C5)C(=O)N(C5CCC(=O)NC5=O)C7)CC3)C4)cc2F)N1CC(F)F (stereo partly drawn) [E 101, 3-(6-(1-(7-(4-((1R,3R)-2-(2,2-difluoroethyl)-3-methyl-2,3,4,9-tetrahydro-1H-pyrido[3,4-b]indol-1-yl)-3,5-difluorophenyl)-7-azaspiro[3.5]nonane-2-carbonyl)piperidin-4-yl)-1-oxo-3,5,6,7-tetrahydropyrrolo[3,4-f]isoindol-2(1H)-yl)piperidine-2,6-dione]
Second: C[C@@H]1Cc2c([nH]c3ccccc23)[C@@H](c2c(F)cc(N3CC(CC(=O)N4CC(N5Cc6cc7c(cc6C5)C(=O)N(C5CCC(=O)NC5=O)C7)C4)C3)cc2F)N1CC(F)F (stereo partly drawn) [E 103, 3-(6-(1-(2-(1-(4-((1R,3R)-2-(2,2-difluoroethyl)-3-methyl-2,3,4,9-tetrahydro-1H-pyrido[3,4-b]indol-1-yl)-3,5-difluorophenyl)azetidin-3-yl)acetyl)azetidin-3-yl)-1-oxo-3,5,6,7-tetrahydropyrrolo[3,4-f]isoindol-2(1H)-yl)piperidine-2,6-dione]
The DC50 of the first is lower: under 10 nM for the first, 10 to 100 nM for the second.

`C[C@@H]1Cc2c([nH]c3ccccc23)[C@@H](c2c(F)cc(N3CC(CC(=O)N4Cc5cc6c(cc5C4)C(=O)N(C4CCC(=O)NC4=O)C6)C3)cc2F)N1CC(F)F` (stereo partly drawn) [E 102, 3-(6-(2-(1-(4-((1R,3R)-2-(2,2-difluoroethyl)-3-methyl-2,3,4,9-tetrahydro-1H-pyrido[3,4-b]indol-1-yl)-3,5-difluorophenyl)azetidin-3-yl)acetyl)-1-oxo-3,5,6,7-tetrahydropyrrolo[3,4-f]isoindol-2(1H)-yl)piperidine-2,6-dione] and `C[C@@H]1Cc2c([nH]c3ccccc23)[C@@H](c2c(F)cc(N3CCC(CC(=O)N4Cc5cc6c(cc5C4)C(=O)N(C4CCC(=O)NC4=O)C6)CC3)cc2F)N1CC(F)F` (stereo partly drawn) [E 104, 3-(6-(2-(1-(4-((1R,3R)-2-(2,2-difluoroethyl)-3-methyl-2,3,4,9-tetrahydro-1H-pyrido[3,4-b]indol-1-yl)-3,5-difluorophenyl)piperidin-4-yl)acetyl)-1-oxo-3,5,6,7-tetrahydropyrrolo[3,4-f]isoindol-2(1H)-yl)piperidine-2,6-dione] cannot be ordered by DC50: over 100 nM for the first, over 100 nM for the second.

Going from `C[C@@H]1Cc2c([nH]c3ccccc23)[C@@H](c2c(F)cc(N3CC4(CCCN(CC(=O)N5Cc6cc7c(cc6C5)C(=O)N(C5CCC(=O)NC5=O)C7=O)C4)C3)cc2F)N1CC(F)F` (stereo partly drawn) [E 105, 6-(2-(2-(4-((1R,3R)-2-(2,2-difluoroethyl)-3-methyl-2,3,4,9-tetrahydro-1H-pyrido[3,4-b]indol-1-yl)-3,5-difluorophenyl)-2,6-diazaspiro[3.5]nonan-6-yl)acetyl)-2-(2,6-dioxopiperidin-3-yl)-6,7-dihydropyrrolo[3,4-f]isoindole-1,3(2H,5H)-dione] to `C[C@@H]1Cc2c([nH]c3ccccc23)[C@@H](c2c(F)cc(N3CCC4(CCN(CC(=O)N5Cc6cc7c(cc6C5)C(=O)N(C5CCC(=O)NC5=O)C7=O)CC4)C3)cc2F)N1CC(F)F` (stereo partly drawn) [E 107, 6-(2-(2-(4-((1R,3R)-2-(2,2-difluoroethyl)-3-methyl-2,3,4,9-tetrahydro-1H-pyrido[3,4-b]indol-1-yl)-3,5-difluorophenyl)-2,8-diazaspiro[4.5]decan-8-yl)acetyl)-2-(2,6-dioxopiperidin-3-yl)-6,7-dihydropyrrolo[3,4-f]isoindole-1,3(2H,5H)-dione], the DC50 falls from over 100 nM to under 10 nM.

First: C[C@@H]1Cc2c([nH]c3ccccc23)[C@@H](c2c(F)cc(N3CC4(CCCN(CC(=O)N5Cc6cc7c(cc6C5)C(=O)N(C5CCC(=O)NC5=O)C7)C4)C3)cc2F)N1CC(F)F (stereo partly drawn) [E 106, 3-(6-(2-(2-(4-((1R,3R)-2-(2,2-difluoroethyl)-3-methyl-2,3,4,9-tetrahydro-1H-pyrido[3,4-b]indol-1-yl)-3,5-difluorophenyl)-2,6-diazaspiro[3.5]nonan-6-yl)acetyl)-1-oxo-3,5,6,7-tetrahydropyrrolo[3,4-f]isoindol-2(1H)-yl)piperidine-2,6-dione]
Second: C[C@@H]1Cc2c([nH]c3ccccc23)[C@@H](c2c(F)cc(N3CCC4(CC3)CN(C(=O)CN3Cc5cc6c(cc5C3)C(=O)N(C3CCC(=O)NC3=O)C6=O)C4)cc2F)N1CC(F)F (stereo partly drawn) [E 111, 6-(2-(7-(4-((1R,3R)-2-(2,2-difluoroethyl)-3-methyl-2,3,4,9-tetrahydro-1H-pyrido[3,4-b]indol-1-yl)-3,5-difluorophenyl)-2,7-diazaspiro[3.5]nonan-2-yl)-2-oxoethyl)-2-(2,6-dioxopiperidin-3-yl)-6,7-dihydropyrrolo[3,4-f]isoindole-1,3(2H,5H)-dione]
The DC50 of the first is higher: 10 to 100 nM for the first, under 10 nM for the second.

`C[C@@H]1Cc2c([nH]c3ccccc23)[C@@H](c2c(F)cc(N3CCC(N4CCN(C(=O)CN5Cc6cc7c(cc6C5)C(=O)N(C5CCC(=O)NC5=O)C7=O)CC4)CC3)cc2F)N1CC(F)F` (stereo partly shown) [E 109] and `C[C@@H]1Cc2c([nH]c3ccccc23)[C@@H](c2c(F)cc(N3CCC4(CCN(C(=O)CN5Cc6cc7c(cc6C5)C(=O)N(C5CCC(=O)NC5=O)C7=O)CC4)CC3)cc2F)N1CC(F)F` (stereo partly drawn) [E 112, 6-(2-(9-(4-((1R,3R)-2-(2,2-difluoroethyl)-3-methyl-2,3,4,9-tetrahydro-1H-pyrido[3,4-b]indol-1-yl)-3,5-difluorophenyl)-3,9-diazaspiro[5.5]undecan-3-yl)-2-oxoethyl)-2-(2,6-dioxopiperidin-3-yl)-6,7-dihydropyrrolo[3,4-f]isoindole-1,3(2H,5H)-dione] cannot be ordered by DC50: under 10 nM for the first, under 10 nM for the second.

First: C[C@@H]1Cc2c([nH]c3ccccc23)[C@@H](c2c(F)cc(N3CCC(N4CCC(C(=O)N5Cc6cc7c(cc6C5)C(=O)N(C5CCC(=O)NC5=O)C7=O)CC4)C3)cc2F)N1CC(F)F (stereo partly drawn) [E 110, 6-(1-(1-(4-((1R,3R)-2-(2,2-difluoroethyl)-3-methyl-2,3,4,9-tetrahydro-1H-pyrido[3,4-b]indol-1-yl)-3,5-difluorophenyl)pyrrolidin-3-yl)piperidine-4-carbonyl)-2-(2,6-dioxopiperidin-3-yl)-6,7-dihydropyrrolo[3,4-f]isoindole-1,3(2H,5H)-dione]
Second: C[C@@H]1Cc2c([nH]c3ccccc23)[C@@H](c2c(F)cc(N3CCC(C(=O)N4CCC(CN5Cc6cc7c(cc6C5)C(=O)N(C5CCC(=O)NC5=O)C7=O)CC4)CC3)cc2F)N1CC(F)F (stereo partly drawn) [E 113, 6-((1-(1-(4-((1R,3R)-2-(2,2-difluoroethyl)-3-methyl-2,3,4,9-tetrahydro-1H-pyrido[3,4-b]indol-1-yl)-3,5-difluorophenyl)piperidine-4-carbonyl)piperidin-4-yl)methyl)-2-(2,6-dioxopiperidin-3-yl)-6,7-dihydropyrrolo[3,4-f]isoindole-1,3(2H,5H)-dione]
The DC50 of the first is higher: over 100 nM for the first, 10 to 100 nM for the second.
